Data reported in patent US5684032A, “Compounds” (SmithKline Beecham Corporation, priority 1995, dated 1997).

Legend:
[1] = tested on: recombinant human IL-8 type α receptor (IL-8Rα, Type I, non-permissive receptor); experiment: [125I] IL-8 receptor binding assay, IL-8Rα (Type I, non-permissive) CHO membranes; details: IL-8Rα (type I) receptor binding assay
Excerpt: (§1) [^125 I] IL-8 (human recombinant) was obtained from Amersham Corp., Arlington Heights, Ill., with specific activity 2000 Ci/mmol. All other chemicals were of analytical grade. High levels of recombinant human IL-8 type α and β receptors were individually expressed in Chinese hamster ovary cells as described previously (Holmes, et al., Science, 1991, 253, 1278). The Chinese hamster ovary membranes were homogenized according to a previously described protocol (Kraft, et al., Nature, 1983, 301, 621). Membrane protein concentration was determined using Pierce Co. micro-assay kit using bovine serum albumin as a standard. All assays were performed in a 96-well micro plate format. Each reaction mixture contained ^125 I IL-8 (0.25 nM), 0.5 μg/mL of IL-8Rα or 1.0 μg/mL of IL-8Rβ membranes in 20 mM Bis-Trispropane and 0.4 mM Tris HCl buffers, pH 8.0, containing 1.2 mM MgSO4, 0.1 mM EDTA, 25 mM NaCl and 0.03% CHAPS plus peptide at relevant concentrations. The assay was initiated by addition of ^125 I-IL-8. After 1 hour at room temperature the plate was harvested using a Tomtec 96-well harvester onto a glass fiber filtermat blocked with 1% polyethyleneimine/0.5% BSA and washed 3 times with 25 mM NaCl, 10 mM TrisHCl, 1 mM MgSO4, 0.5 mM EDTA, 0.03% CHAPS, pH 7.4. The filter was then dried and counted on the Betaplate liquid scintillation counter. […]

[2] = tested on: recombinant human IL-8 type β receptor (IL-8Rβ, Type II, permissive receptor); experiment: [125I] IL-8 receptor binding assay, IL-8Rβ (Type II, permissive) CHO membranes; details: IL-8Rβ (type II) receptor binding assay
Excerpt: as §1

O=C(O)c1c(-c2ccccc2)c2ccccc2n1Cc1ccc(OC(F)(F)F)cc1
inhibition of IL-8 binding, result in words [1]: not active | inhibition of IL-8 binding, result in words [2]: not active
